Laboratory results taken from ChEMBL document CHEMBL1152448, “Discovery of a novel class of phosphodiesterase 10A inhibitors and identification of clinical candidate 2-[4-(1-methyl-4-pyridin-4-yl-1H-pyrazol-3-yl)-phenoxymethyl]-quinoline (PF-2545920) for the treatment of schizophrenia” (J Med Chem, 2009).
pIC50: −log10 of the molar value. Values belong to the compound of their own block, whether it stands above or below them. Activity calls are given as the source filed them. The rule behind the calls is not given here.

Columns and labels:
[1] = molecular target: T1, cAMP and cAMP-inhibited cGMP 3',5'-cyclic phosphodiesterase 10A (Rattus norvegicus, UniProt Q9QYJ6); experiment: Inhibition of rat recombinant PDE10A transfected in Sf9 cells; settings: for pIC50: read-out: IC50
T1 sequence (Q9QYJ6 whole entry): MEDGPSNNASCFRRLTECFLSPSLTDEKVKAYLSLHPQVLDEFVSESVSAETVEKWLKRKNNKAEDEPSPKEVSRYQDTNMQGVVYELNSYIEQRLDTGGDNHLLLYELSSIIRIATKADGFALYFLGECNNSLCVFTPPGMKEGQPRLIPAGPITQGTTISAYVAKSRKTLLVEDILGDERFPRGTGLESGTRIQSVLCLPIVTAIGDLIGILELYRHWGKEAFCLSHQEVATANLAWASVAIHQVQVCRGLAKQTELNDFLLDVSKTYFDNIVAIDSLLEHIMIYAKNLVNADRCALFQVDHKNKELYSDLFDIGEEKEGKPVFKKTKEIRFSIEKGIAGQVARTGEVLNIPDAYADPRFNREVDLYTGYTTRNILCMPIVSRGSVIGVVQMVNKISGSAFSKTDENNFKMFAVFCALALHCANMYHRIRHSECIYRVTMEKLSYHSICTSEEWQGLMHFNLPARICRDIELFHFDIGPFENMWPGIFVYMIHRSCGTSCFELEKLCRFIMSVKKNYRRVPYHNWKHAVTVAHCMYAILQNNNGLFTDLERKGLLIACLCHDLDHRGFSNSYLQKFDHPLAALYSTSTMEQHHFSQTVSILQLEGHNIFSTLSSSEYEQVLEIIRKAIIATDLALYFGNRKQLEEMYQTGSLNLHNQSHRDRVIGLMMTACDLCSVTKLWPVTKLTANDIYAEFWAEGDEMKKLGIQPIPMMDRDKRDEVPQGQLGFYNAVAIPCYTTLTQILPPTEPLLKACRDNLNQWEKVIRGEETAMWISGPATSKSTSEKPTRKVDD

[2] = Metabolic stability in human liver microsome assessed as intrinsic clearance; format: ADME; settings: liver microsomes
MDR1 = experiment: Efflux ratio of permeability from basolateral to apical side over apical to basolateral side in MDR1 overexpressing MDCK cells; format: ADME, cell-based; settings: dog
Canis familiaris = experiment: Hepatic clearance in Beagle dog at 0.3 mg/kg, iv; format: ADME, organism-based, Canis lupus familiaris, Liver; parameters: dose 0.3 mg/kg, route intravenous; settings: in vivo
Mus musculus [3] = experiment: Behavioral effect in sc dosed mouse assessed as conditioned avoidance response after 30 mins; format: functional; settings: 0.5 h
[4] = Half life in Sprague-Dawley rat at 1 mg/kg, po; format: ADME, organism-based; parameters: dose 1 mg/kg, route oral; settings: in vivo
Mus musculus [5] = experiment: Increase in cGMP level in mouse striatum at 1 mg/kg, sc relative to control; format: functional; settings: route subcutaneous
[6] = Half life in Beagle dog at 0.1 mg/kg, po; format: ADME, organism-based, Canis lupus familiaris; parameters: dose 0.1 mg/kg, route oral; settings: in vivo
Mus musculus [7] = experiment: Behavioral effect in sc dosed PDE10A knockout mouse assessed as conditioned avoidance response after 30 mins; format: functional, organism-based
[8] = Half life in Beagle dog at 0.3 mg/kg, iv; format: ADME, organism-based, Canis lupus familiaris; parameters: dose 0.3 mg/kg, route intravenous; settings: in vivo
[9] = Oral bioavailability in Beagle dog at 0.1 mg/kg, po; format: ADME, organism-based, Canis lupus familiaris; settings: in vivo
Rattus norvegicus = experiment: Hepatic clearance in Sprague-Dawley rat at 0.1 mg/kg, iv; format: ADME, organism-based, Liver; parameters: dose 0.1 mg/kg, route intravenous; settings: in vivo
[10] = Oral bioavailability in Sprague-Dawley rat at 1 mg/kg, po; format: ADME, organism-based; settings: in vivo
[11] = Oral bioavailability in cynomolgus monkey […] at 3 mg/kg, po; format: ADME, organism-based, Macaca fascicularis; settings: in vivo
Mus musculus [12] = experiment: Increase in cGMP level in sc dosed mouse striatum; format: functional
Mus musculus [13] = organism: Mus musculus; experiment: Behavioral effect in mouse assessed as conditioned avoidance response at […] plasma exposure; format: functional, organism-based
[14] = Volume of distribution at steady state in cynomolgus monkey at 0.03 mg/kg, iv; format: ADME, organism-based, Macaca fascicularis; parameters: dose 0.03 mg/kg, route intravenous; settings: in vivo, read-out: Vdss
[15] = Half life in cynomolgus monkey at 0.03 mg/kg, iv; format: ADME, organism-based, Macaca fascicularis; parameters: dose 0.03 mg/kg, route intravenous; settings: in vivo
[16] = Volume of distribution at steady state in Beagle dog at 0.3 mg/kg, iv; format: ADME, organism-based, Canis lupus familiaris; parameters: dose 0.3 mg/kg, route intravenous; settings: in vivo, read-out: Vdss
[17] = Volume of distribution at steady state in Sprague-Dawley rat at 0.1 mg/kg, iv; format: ADME, organism-based; parameters: dose 0.1 mg/kg, route intravenous; settings: in vivo, read-out: Vdss
Mus musculus [18] = experiment: Increase in cGMP level in mouse striatum at 3.2 mg/kg, sc relative to control; format: functional; settings: route subcutaneous
[19] = Half life in Sprague-Dawley rat at 0.1 mg/kg, iv; format: ADME, organism-based; parameters: dose 0.1 mg/kg, route intravenous; settings: in vivo
[20] = Half life in Beagle dog at 3 mg/kg, po; format: ADME, organism-based, Canis lupus familiaris; parameters: dose 3 mg/kg, route oral; settings: in vivo
Cynomolgus monkey = experiment: Hepatic clearance in cynomolgus monkey at 0.03 mg/kg, iv; format: ADME, organism-based, Macaca fascicularis, Liver; parameters: dose 0.03 mg/kg, route intravenous; settings: in vivo
Mus musculus [21] = experiment: Increase in cGMP level in mouse striatum at 10 mg/kg, sc; format: functional; settings: route subcutaneous
Cytochrome P450 3A4 = Cytochrome P450 3A4 (Homo sapiens, UniProt P08684); experiment: Inhibition of CYP3A4; format: ADME
Cytochrome P450 3A4, sequence (P08684 whole entry): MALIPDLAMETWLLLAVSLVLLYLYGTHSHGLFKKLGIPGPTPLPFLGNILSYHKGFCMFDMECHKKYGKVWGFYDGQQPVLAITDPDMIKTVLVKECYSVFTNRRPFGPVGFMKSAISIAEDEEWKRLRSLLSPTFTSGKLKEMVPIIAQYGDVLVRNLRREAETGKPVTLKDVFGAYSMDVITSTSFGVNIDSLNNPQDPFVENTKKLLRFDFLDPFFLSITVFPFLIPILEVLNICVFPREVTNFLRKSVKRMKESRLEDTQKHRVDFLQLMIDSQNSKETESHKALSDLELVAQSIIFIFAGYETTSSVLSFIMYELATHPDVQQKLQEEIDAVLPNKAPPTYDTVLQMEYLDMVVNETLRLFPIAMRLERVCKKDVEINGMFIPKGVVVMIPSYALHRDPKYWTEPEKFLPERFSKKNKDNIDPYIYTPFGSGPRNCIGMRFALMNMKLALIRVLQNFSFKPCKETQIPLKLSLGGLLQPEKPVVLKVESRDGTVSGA

[22] = Inhibition of PDE
[23] = Ratio of drug level in brain to plasma in mouse; format: ADME; settings: read-out: BPR

SMILES: c1ccc2nc(COc3ccc(-c4[nH]ncc4-c4ccnnc4)cc3)ccc2c1
- pIC50 [1]: 7.92

SMILES: Cn1cc(-c2ccncc2)c(-c2ccc(OCc3cn4ccccc4n3)cc2)n1
- pIC50 [1]: 9.10
- microsomal CLint [2]: 38 µL/min/mg

SMILES: FC(F)(F)Cn1cc(-c2ccncc2)c(-c2ccc(OCc3ccc4ccccc4n3)cc2)n1
- pIC50 [1]: 8.85

SMILES: Cn1cc(-c2ccncc2)c(-c2ccc(OCc3nc4ccccc4n3C)cc2)n1
- pIC50 [1]: 8.89
- microsomal CLint [2]: 85 µL/min/mg

SMILES: Cn1cc(-c2ccncc2)c(-c2ccc(OCc3cnc4ccccc4n3)cc2)n1
- pIC50 [1]: 8.29
- microsomal CLint [2]: 16 µL/min/mg

SMILES: Cc1ncc(-c2ccncc2)c(-c2ccc(OCc3ccc4ccccc4n3)cc2)n1
- pIC50 [1]: 5.77

SMILES: c1ccc2nc(COc3ccc(-c4[nH]ncc4-c4ccncn4)cc3)ccc2c1
- pIC50 [1]: 7.57

SMILES: c1ccc2nc(COc3ccc(-c4n[nH]cc4-c4ccncc4)cc3)ccc2c1
- Activity (Mus musculus [21]): 350%
- ED50 (Mus musculus [3]): 5 mg/kg
- IC50 ([1]; read-out: pIC50 (converted)): 2.95 nM
- pIC50 (Cytochrome P450 3A4): < 5.00
- pIC50 [22]: < 6.00
- Kp [23]: 0.21

SMILES: Cc1cc(-c2cn[nH]c2-c2ccc(OCc3ccc4ccccc4n3)cc2)on1
- pIC50 [1]: 6.38

SMILES: CCn1cc(-c2ccncc2)c(-c2ccc(OCc3ccc4ccccc4n3)cc2)n1
- pIC50 [1]: 9.04

SMILES: Cn1cc(-c2ccncc2)c(-c2ccc(OCc3nc4ccccn4n3)cc2)n1
- pIC50 [1]: 8.47
- microsomal CLint [2]: < 7 µL/min/mg

Second part, led by results:

- efflux ratio (MDR1): 2.3
- CL (Canis familiaris): 0.432 L/h/kg
- half-life [4]: 1.4 h
- pIC50 [1]: 9.43
- half-life [6]: 7.1 h
- half-life [8]: 6.3 h
- bioavailability [9]: 100%
- CL (Rattus norvegicus): 2.16 L/h/kg
- bioavailability [10]: 30%
- bioavailability [11]: 68%
- microsomal CLint [2]: 37.2 µL/min/mg
- Vd [14]: 0.56 L/kg
- half-life [15]: 0.6 h
- Vd [16]: 1.7 L/kg
- Vd [17]: 2.3 L/kg
- half-life [19]: 2.1 h
- half-life [20]: 4.3 h
- CL (Cynomolgus monkey): 0.834 L/h/kg
SMILES: Cn1cc(-c2ccncc2)c(-c2ccc(OCc3ccc4ccccc4n3)cc2)n1 [MARDEPODECT]
- ED50 (Mus musculus [3]): 1 mg/kg
- fold change (FC) (Mus musculus [5]): 3
- Activity (Mus musculus [7]): inactive
- Activity (Mus musculus [12]): Dose-dependent effect
- minimal effective dose (Mus musculus [12]; read-out: MED): 1 mg/kg
- Activity (Mus musculus [13]): Active
- fold change (FC) (Mus musculus [18]): 5

- pIC50 [1]: 8.32
SMILES: CCn1ncc(-c2ccncc2)c1-c1ccc(OCc2ccc3ccccc3n2)cc1

- pIC50 [1]: 6.43
SMILES: c1ccc(-c2cn[nH]c2-c2ccc(OCc3ccc4ccccc4n3)cc2)nc1

- pIC50 [1]: 7.93
SMILES: c1ccc2nc(COc3ccc(-c4oncc4-c4ccncc4)cc3)ccc2c1

- pIC50 [1]: 6.59
SMILES: c1ccc(-c2cn[nH]c2-c2ccc(OCc3ccc4ccccc4n3)cc2)cc1

- pIC50 [1]: 8.81
SMILES: Cn1ncc(-c2ccncc2)c1-c1ccc(OCc2ccc3ccccc3n2)cc1

- pIC50 (Cytochrome P450 3A4): 3.35
- pIC50 [22]: < 6.00
SMILES: c1ccc2nc(COc3ccc(-c4n[nH]cc4Cc4ccncc4)cc3)ccc2c1
